Reference: patent US20240423204A1, “METHOD AND USE OF AN ENANTIOMER OF 3,4-DIHYDROXYPHENYLALANINE (DOPA) FOR ENHANCING PLANT ATTRACTIVENESS TO BENEFICIAL INSECTS” (BIOBAB R&D, S.L., priority 2021, published 2024)

Experiments:
Aphidius ervi = assay: Behavioral assay in two-way olfactometer, bean plants (Vicia faba) treated by soil application; type: in vivo; conditions: 10 min, Vicia faba 3-4 weeks, versus clean plant
Description: Broad bean seeds (Vicia faba cv Aguadulce supersimonia) were planted individually in plastic pots (6×6×9 cm) filled with Traysubstrat topsoil (Klasmann-Deilmann GmbH) or a mixture of agriperlite, vermiculite, and sand (1:1:1) and grown in an environmental chamber (24±2° C., 45±10% RH, 14 h: 8 h L: D).
For this example, bean plants of 3-4 weeks were used. Plants were treated by soil application of the two isomers of DOPA: 3,4-dihydroxy-L-phenylalanine (Alfa Aesar, CAS Number 59-92-7) and 3,4-dihydroxy-D-phenylalanine (Sigma Aldrich, CAS Number 5796-17-8).
Untreated plants were also used as control.
The attractiveness of beneficial insects, specifically Aphidius ervi, towards a bean plants treated with the isomers of DOPA compared to clean bean plant (control) was evaluated in an olfactometer.
The behavioral response of A. ervi were evaluated over 10 min in a two-way olfactometer. Only active insects, i.e. insects that spent at least 60 s in the treatment (trt) and/or control (cnt) arm of the olfactometer were taken into account.
The results obtained in this example are expressed as a percentage of residence time in each olfactometer arm where the parasitoid remained, relative to the total time spent in the two arms. Paired t-tests were conducted using R (free software environment for statistical computing and graphics).

bean plants (Vicia faba) [1] = assay: VOC induction assay on bean plants (Vicia faba) in soil/vermiculite; type: in vivo; conditions: 10 μg in 30 mL, 24 h, 6-methyl-5-hepten-2one, cis-3-hexen-1-ol, cis-3-hexenyl acetate, ocimene
Description: Broad beans (Vicia faba cv Histal) plants were grown in a mixture of sterile soil/vermiculite (7:3) for 10 days, and treated with L-DOPA (10 μg), D-DOPA (10 μg) or HPLC water (control, 10 μl) dissolved in 30 mL of distilled water.
(§1) After 24 h, the volatile organic compounds (VOCs) emitted from the plant were collected through a dynamic headspace.
(§2) The bean plants were enclosed in a glass vessel with a volume of 3.2 I. The bottom of the vessel was enclosed around the top of the pot. Air that had been purified by passage through an activated charcoal filter (BDH, 10-14 mesh) was pushed into (750 ml·min^−1) and pulled (700 ml·min^−1) out of the vessel. VOCs were trapped onto Porapack™ (Porous Polymer Adsorbent) 50/80 mesh (50 mg; Supelco, Bellefonte, USA) held in glass tubing (5 mm outer diameter) by two plugs of silanised glass wool. The Porapack™ tube was conditioned by washing with redistilled diethyl ether (2 ml) and heating at 130° C. for 4 h under a stream of purified nitrogen. […]
(§3) For the analysis, four samples (1 μL) from each treatment (L-DOPA, D-DOPA and Control) were analyzed on an Agilent 7820A Gas Chromatograph (Agilent Technologies, Santa Clara, California, USA), equipped with a cool column injector, flame ionization detector (FID), and a HP-1 capillary GC column (50 m×0.32 mm internal diameter×0.52 μm film thickness). […]

bean plants (Vicia faba) [2] = assay: VOC induction assay on bean plants (Vicia faba) in hydroponic medium; type: in vivo; conditions: 10 μg
Description: Broad beans (Vicia faba cv Histal) were potted in sterile vermiculite and kept in a glasshouse at 23° C. After 7 days, the seedlings were gently removed from the vermiculite, the cotyledons peeled and the roots rinsed with bidistilled water, carefully brushing away all soil particles. They were then placed in glass beakers containing a hydroponic solution made with Hoagland's modified basalt salt mixture, (MP, USA), and maintained in an environmental chamber at 23° C. Each beaker, containing three seedlings, was wrapped in aluminum foil to hold the plants in position and to prevent the light from reaching the roots. Every 4 days, the hydroponic solution in each beaker was renewed. After 10 days plants were treated with L-DOPA (10 μg), D-DOPA (10 μg) or HPLC water (control, 10 μl) dissolved in 30 mL of distilled water.
(§4) The bean plants were enclosed in a glass vessel with a volume of 3.2 I. The bottom of the vessel was enclosed around the top of the pot. Air that had been purified by passage through an activated charcoal filter (BDH, 10-14 mesh) was pushed into (750 ml·min^−1) and pulled (700 ml·min^−1) out of the vessel. VOCs were trapped onto Porapack™ (Porous Polymer Adsorbent) 50/80 mesh (50 mg; Supelco, Bellefonte, USA) held in glass tubing (5 mm outer diameter) by two plugs of silanised glass wool. The Porapack™ tube was conditioned by washing with redistilled diethyl ether (2 ml) and heating at 130° C. for 4 h under a stream of purified nitrogen.
(§5) VOCs collected on the Porapak™ were eluted with 750 μL of redistilled diethyl ether and the samples were stored at −20° C. until analysis.
(§6) For the analysis, four samples (1 μL) from each treatment (L-DOPA, D-DOPA and Control) were analyzed on an Agilent 7820A Gas Chromatograph (Agilent Technologies, Santa Clara, California, USA), equipped with a cool column injector, flame ionization detector (FID), and a HP-1 capillary GC column (50 m×0.32 mm internal diameter×0.52 μm film thickness). Hydrogen was the carrier gas. The oven temperature was maintained at 30° C. for 0.1 min, then programmed to increase at 10° C.·min^−1 until 250° C., and then held for 38 min. Tentative identifications were made by Kovats' Index values and GC peak enhancement on GC columns of HP-1, using authentic samples of chemicals compounds.

[3] = system: bean plants (Phaseolus vulgaris); assay: VOC induction assay on bean plants (Phaseolus vulgaris) in soil; type: in vivo; conditions: 10 μg in 30 mL, 24 h, cis-3-hexenyl acetate and ocimene
Description: Bean (Phaseolus vulgaris cv CGB0002) plants were grown in sterile soil for 5 days, and treated with L-DOPA (10 μg), D-DOPA (10 μg) or HPLC water (control, 10 μl) dissolved in 30 mL of distilled water.
as §1, §2, §3

[4] = system: bean plants (Phaseolus vulgaris); assay: VOC induction assay on bean plants (Phaseolus vulgaris) in hydroponic medium; type: in vivo; conditions: 10 μg, 24 h
Description: Beans (Phaseolus vulgaris cv CGB0002) were sown in sterile vermiculite and kept in a glasshouse at 27° C. After 17 days, the seedlings were gently removed from the vermiculite. They were then placed in glass beakers containing 150 mL of hydroponic solution made with Hoagland's modified basalt salt mixture, (MP, USA), and maintained in an environmental chamber at 27° C. Each beaker, containing one seedling, was wrapped in aluminum foil to hold the plants in position and to prevent the light from reaching the roots. After 2 days plants were treated with L-DOPA (10 μg), D-DOPA (10 μg) or HPLC water (control, 10 μl).
as §1, §4, §5, §6

[5] = system: wheat plants (Triticum monococcum); assay: VOC induction assay on wheat plants (Triticum monococcum) in soil; type: in vivo; conditions: 10 μg in 30 mL, 24 h
Description: Wheat (Triticum monococcum VAR Tocayo) plants were grown in sterile soil for 15 days (20 seeds per pot), and treated with L-DOPA (10 μg), D-DOPA (10 μg) or HPLC water (control, 10 μl) dissolved in 30 mL of distilled water.
as §1
as §2, with “wheat” for “bean”
as §3

[6] = system: bean plant (Vicia faba) leaves; assay: Estimation of total phenolic content in bean plant (Vicia faba) leaves, Folin-Ciocalteu assay; type: in vivo; conditions: soil/vermiculite, 10 μg in 30 mL, 24 h
Description: The estimation of total phenolic content in bean plant leaves (Vicia faba) was based on the procedure developed by Ainsworth, E.A. et al. (2007) using Folin-Ciocalteu (F-C) reagent. F-C assay is commonly been used to assay total phenolic content. The F-C assay provides a convenient, rapid, and simple estimation of the content of total phenolics, and other oxidation substrates in plant extracts.
Broad bean (Vicia faba cv Histal) plants were grown in a mixture of sterile soil/vermiculite (7:3) for 10 days, and treated with L-DOPA (10 μg), D-DOPA (10 μg) or HPLC water (control, 10 μl) dissolved in 30 mL of distilled water. After 24 h harvest leaves material (approximately 20 mg) in screw-capped tubes and freeze immediately in liquid nitrogen.
To homogenize the tissue, three tungsten carbide beads and 2 ml of ice-cold 95% (vol/vol) methanol were added in each sample tube and insert samples into pre-cooled Teflon adaptors. Tissue was homogenized for 5 min at 30 Hz. […]
Finally, a […] sample, standard or blank from the assay tube were transferred to a clear 96-well micro-plate and the absorbance of each was measured at 750 nm using a spectrophotometer.
For calculate the total phenolic content, first a standard curve from the blank-corrected A750 of the gallic acid standards was calculated. […]

many plants = conditions: allelochemical effect, Nishihara et al (2004); cited from earlier work

| Compound | residence time of A. ervi females on treated bean plants, higher than for untreated plants (Aphidius ervi) | concentration of VOCs (FID response) emitted by the plant versus control (bean plants (Vicia faba) [1]) | concentration of 6-methyl-5-hepten-2one versus control (bean plants (Vicia faba) [2]) | concentration of cis-3-hexenyl acetate versus control (bean plants (Vicia faba) [2]) | concentration of ocimene versus control (bean plants (Vicia faba) [2]) | concentration of VOCs (FID response) versus control [3] | concentration of 6-methyl-5-hepten-2one versus control [4] | concentration of cis-3-hexen-1-ol versus control [4] | concentration of cis-3-hexenyl acetate versus control [4] | concentration of ocimene versus control [4] | concentration of ocimene versus control [5] | total phenolic content versus untreated plants (control) [6] | growth of plants (especially radicle and hypocotyl) (many plants) |
| --- | --- | --- | --- | --- | --- | --- | --- | --- | --- | --- | --- | --- | --- |
| N[C@@H](Cc1ccc(O)c(O)c1)C(=O)O [L-DOPA, L-3,4-dihydroxyphenylalanine] | approx. +20% | A change is observed | A change is observed | A change is observed | A change is observed | A change is observed | A change is observed | A change is observed | A change is observed | A change is observed | A change is observed | higher | reduced the growth |
| N[C@H](Cc1ccc(O)c(O)c1)C(=O)O [D-DOPA, D-3,4-dihydroxyphenylalanine] | approx. +20% | A change is observed | A change is observed | A change is observed | A change is observed |  |  | A change is observed |  | A change is observed |  | higher |  |
